Assay results taken from patent US20060128762A1, “Medicinal composition and method for treating malignant tumor and utilization thereof” (D.Western Therapeutics Institute, priority 2002, published 2006).

Assays:
[1] = Stability of the suspension in 0.5% aqueous methylcellulose solution; assay type: physicochemical; settings: suspension in 0.5% aqueous methylcellulose solution (M.C.), in a cold place
Procedure: (§1) Compound 2 was weighed and ground down in an agate motor. It was then suspended slowly in the motor by adding 0.5% aqueous methylcellulose solution (M.C.) step by step to obtain 10 mg/ml suspension. The suspension was further diluted with M.C. to obtain a normal concentration and stored at 4° C. CDDP was dissolved and diluted with physiological saline. Immediately after preparation, the CDDP solution was subjected to test. It is assured that the suspension of Compound 2 in M.C. is homogeneous and stable for 14 days in a cold place.

[2] = test system: Murine Monocytic Leukemia P388; experiment: Antitumor effect on P388 murine monocytic leukemia transplanted into mouse (survival); assay type: in vivo; set-up: MST (median survival time): unit not given here; settings: for MST (median survival time) / Survival number on day 50 / T/C (%): N = 6; for survival rate on day 5: administered alone
Procedure: Monocytic leukemia cell line P388 was purchased from Japanese Foundation for Cancer Research, Cancer Chemotherapy Center. The cryopreserved tumor was transplanted intraperitoneally into DBA/2 mouse (Japan SLC, Inc.). When the abdominal bloating was observed, ascites was removed and subjected to the test.
as §1, with “test.” for “test. It is assured that the suspension of Compound 2 in M.C. is homogeneous and stable for 14 days in a cold place.”
Male 4-week-old DBA/2 mice (n=10, 2 mice for the present test) and male 4-week-old CDF1 mice (DBA/2×BALB/c) (n=156) were purchased from Japan SLC, Inc., and used six animals per group. Animals were kept in a chamber maintained at room temperature of 21 to 25° C. and humidity of 45-65% with a given lighting time intervals (light period: 7:00 to 19:00; dark period: 19:00 to 7:00) and allowed to access freely to feed (F-2, Funabashi Nojo) and tap water. The animals purchased were used in the test after subjecting to taming and quarantine for 1 week.
The cryopreserved P388 cell lines were transplanted intraperitoneally into DBA/2 mouse. When the abdominal bloating was observed, ascites containing cancer cells were removed. The ascites was diluted with phosphate-buffered physiological saline (PBS, pH7.4) until the cell concentration became 5×10^6 cells/ml. The resultant solution (0.2 ml) was transplanted intraperitoneally into CDF1 mouse (1×10^6 cells/mouse). The drug was administered to mouse (0.1 ml/10 g body weight) on and after the next day of transplantation.
Compound 2 was administered orally and CDDP intraperitoneally. Animals of control group were untreated because of diversity of administration route and complexity of administration schedule.
The administration was started on the next day (day 1) of transplantation of tumor according to the protocol shown in Table 1, i.e., day 1; day 2; or day 1 and 2.

[3] = Compound 2 25 mg/kg p.o on day 1
[4] = Compound 2 25 mg/kg p.o on day 2
[5] = Compound 2 50 mg/kg p.o on day 1
[6] = Compound 2 50 mg/kg p.o on day 2
[7] = Compound 2 100 mg/kg p.o on day 1
[8] = Compound 2 100 mg/kg p.o on day 2

With `COc1ccc(S(=O)(=O)N(C(C)=O)c2ccccc2/C=C/c2cc[n+]([O-])cc2)cc1` [Compound 2, (E)-4-[2-[2-[N-acetyl-N-[(p-methoxyphenyl)sulfonyl]-amino]phenyl]ethenyl]pyridine 1-oxide] the “time for which the suspension in M.C. is homogeneous and stable” value [1] was 14 days, the “MST (median survival time)” value [2, 3] was 12.5 and the “Survival number on day 50” value [2, 3] was 0. For the same compound, the “T/C (%)” value [2, 3] was 125%, the “MST (median survival time)” value [2, 4] was 13 and the “Survival number on day 50” value [2, 4] was 0. For the same compound, the “T/C (%)” value [2, 4] was 130%, the “MST (median survival time)” value [2, 5] was 13 and the “Survival number on day 50” value [2, 5] was 0. For the same compound, the “T/C (%)” value [2, 5] was 130%, the “MST (median survival time)” value [2, 6] was 13 and the “Survival number on day 50” value [2, 6] was 0. The “T/C (%)” value [2, 6] was 130%, the “MST (median survival time)” value [2, 7] was 16.5 and the “Survival number on day 50” value [2, 7] was 0. The “T/C (%)” value [2, 7] was 165%, the “MST (median survival time)” value [2, 8] was 15 and the “Survival number on day 50” value [2, 8] was 0. For the same compound, the “T/C (%)” value [2, 8] was 150% and the “survival rate on day 5” value [2] was “not observed”.
For `N.N.[Cl][Pt][Cl]` [CDDP, cis-platinum (II) diamine chloride, reference compound], the “MST (median survival time)” value ([2]; CDDP 2.5 mg/kg i.p on day 1) was 14.5, the “Survival number on day 50” value ([2]; CDDP 2.5 mg/kg i.p on day 1) was 0 and the “T/C (%)” value ([2]; CDDP 2.5 mg/kg i.p on day 1) was 145%. For the same compound, the “MST (median survival time)” value ([2]; CDDP 2.5 mg/kg i.p on day 2) was 15.5, the “Survival number on day 50” value ([2]; CDDP 2.5 mg/kg i.p on day 2) was 0 and the “T/C (%)” value ([2]; CDDP 2.5 mg/kg i.p on day 2) was 155%. The “MST (median survival time)” value ([2]; CDDP 5 mg/kg i.p on day 1) was 17, the “Survival number on day 50” value ([2]; CDDP 5 mg/kg i.p on day 1) was 0 and the “T/C (%)” value ([2]; CDDP 5 mg/kg i.p on day 1) was 170%. The “MST (median survival time)” value ([2]; CDDP 5 mg/kg i.p on day 2) was 17, the “Survival number on day 50” value ([2]; CDDP 5 mg/kg i.p on day 2) was 0 and the “T/C (%)” value ([2]; CDDP 5 mg/kg i.p on day 2) was 170%. The “MST (median survival time)” value ([2]; CDDP 10 mg/kg i.p on day 1) was 17, the “Survival number on day 50” value ([2]; CDDP 10 mg/kg i.p on day 1) was 0 and the “T/C (%)” value ([2]; CDDP 10 mg/kg i.p on day 1) was 170%. The “MST (median survival time)” value ([2]; CDDP 10 mg/kg i.p on day 2) was 17, the “Survival number on day 50” value ([2]; CDDP 10 mg/kg i.p on day 2) was 0 and the “T/C (%)” value ([2]; CDDP 10 mg/kg i.p on day 2) was 170%. For the same compound, the “survival rate on day 5” value [2] was “not observed”.
